Laboratory results from PMC12372887, “Mechanism and cellular actions of the potent AMPK inhibitor BAY-3827” (Science Advances, 2025).

Experiments:
Assay in all cases: Kinase panel (140 human kinases)
Assay type in all cases: biochemical
AMPK = system: AMPK
How it was run: (§1)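 Duplicate radiometric filter-binding measurements with [γ-^33P]ATP gave percent residual activity, mean and SD. Tested concentrations: 0.1 μM and, for BAY-3827, 1 μM. ATP set per kinase to 5, 20 or 50 μM, not above Km.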

BRK = BRK (Homo sapiens, UniProt Q13882)
BRK, sequence (Q13882 whole entry): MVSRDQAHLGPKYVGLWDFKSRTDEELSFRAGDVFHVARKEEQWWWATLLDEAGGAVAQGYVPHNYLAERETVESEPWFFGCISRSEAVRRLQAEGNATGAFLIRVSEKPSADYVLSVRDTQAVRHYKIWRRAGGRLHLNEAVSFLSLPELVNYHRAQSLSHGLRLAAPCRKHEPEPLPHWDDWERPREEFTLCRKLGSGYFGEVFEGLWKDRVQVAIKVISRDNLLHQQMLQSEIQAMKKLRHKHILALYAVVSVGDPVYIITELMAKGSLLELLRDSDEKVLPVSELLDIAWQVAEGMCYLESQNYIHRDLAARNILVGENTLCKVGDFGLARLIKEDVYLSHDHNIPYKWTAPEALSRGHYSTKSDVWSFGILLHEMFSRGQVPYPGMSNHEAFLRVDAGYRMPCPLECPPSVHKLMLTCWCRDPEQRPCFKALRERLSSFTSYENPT
How it was run: as §1

CK1γ2 = CK1γ2 (Homo sapiens, UniProt P78368)
CK1γ2, sequence (P78368 whole entry): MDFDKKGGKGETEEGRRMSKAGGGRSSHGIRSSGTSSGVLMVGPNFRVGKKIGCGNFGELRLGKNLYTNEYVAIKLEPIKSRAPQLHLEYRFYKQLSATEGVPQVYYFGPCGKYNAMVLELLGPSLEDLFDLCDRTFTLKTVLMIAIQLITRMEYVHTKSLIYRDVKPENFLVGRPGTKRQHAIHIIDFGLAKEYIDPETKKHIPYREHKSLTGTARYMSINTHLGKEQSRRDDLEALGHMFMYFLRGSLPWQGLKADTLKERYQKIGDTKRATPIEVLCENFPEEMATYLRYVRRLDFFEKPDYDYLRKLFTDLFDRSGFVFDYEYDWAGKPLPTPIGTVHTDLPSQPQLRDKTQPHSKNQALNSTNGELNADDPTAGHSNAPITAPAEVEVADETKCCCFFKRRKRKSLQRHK
How it was run: as §1

DDR2 = DDR2 (Homo sapiens, UniProt Q16832)
How it was run: as §1

EPH-B1 = EPH-B1 (Homo sapiens, UniProt P54762)
How it was run: as §1

FGF-R1 = FGF-R1 (Homo sapiens, UniProt P11362)
How it was run: as §1

HIPK2 = HIPK2 (Homo sapiens, UniProt Q9H2X6)
How it was run: as §1

IKKb = target: T1, IKKb (Homo sapiens, UniProt O14920)
T1 sequence (O14920 1-756): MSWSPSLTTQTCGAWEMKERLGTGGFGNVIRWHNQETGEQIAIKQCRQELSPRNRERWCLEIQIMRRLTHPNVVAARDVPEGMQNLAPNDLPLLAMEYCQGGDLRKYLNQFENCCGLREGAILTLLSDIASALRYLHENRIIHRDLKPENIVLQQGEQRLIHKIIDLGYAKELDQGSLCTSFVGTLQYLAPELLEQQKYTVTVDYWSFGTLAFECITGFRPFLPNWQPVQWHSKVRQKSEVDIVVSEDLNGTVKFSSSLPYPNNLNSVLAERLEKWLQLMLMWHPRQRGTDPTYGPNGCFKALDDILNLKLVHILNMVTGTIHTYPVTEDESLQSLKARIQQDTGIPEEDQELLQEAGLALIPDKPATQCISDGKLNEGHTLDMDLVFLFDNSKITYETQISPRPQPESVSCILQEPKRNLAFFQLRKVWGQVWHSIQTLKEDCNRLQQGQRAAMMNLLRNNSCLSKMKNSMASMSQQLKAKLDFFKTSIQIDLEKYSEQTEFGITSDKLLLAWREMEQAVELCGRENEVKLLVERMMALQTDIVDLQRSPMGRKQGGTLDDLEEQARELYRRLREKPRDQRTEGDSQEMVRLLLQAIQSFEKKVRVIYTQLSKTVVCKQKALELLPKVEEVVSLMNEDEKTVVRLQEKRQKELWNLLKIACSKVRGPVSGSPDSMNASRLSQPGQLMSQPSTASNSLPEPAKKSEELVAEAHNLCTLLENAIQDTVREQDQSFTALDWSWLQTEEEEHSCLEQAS
How it was run: as §1

MEKK1 = MEKK1 (Homo sapiens, UniProt Q13233)
How it was run: as §1

MINK1 = MINK1 (Homo sapiens, UniProt Q8N4C8)
MINK1, sequence (Q8N4C8 whole entry): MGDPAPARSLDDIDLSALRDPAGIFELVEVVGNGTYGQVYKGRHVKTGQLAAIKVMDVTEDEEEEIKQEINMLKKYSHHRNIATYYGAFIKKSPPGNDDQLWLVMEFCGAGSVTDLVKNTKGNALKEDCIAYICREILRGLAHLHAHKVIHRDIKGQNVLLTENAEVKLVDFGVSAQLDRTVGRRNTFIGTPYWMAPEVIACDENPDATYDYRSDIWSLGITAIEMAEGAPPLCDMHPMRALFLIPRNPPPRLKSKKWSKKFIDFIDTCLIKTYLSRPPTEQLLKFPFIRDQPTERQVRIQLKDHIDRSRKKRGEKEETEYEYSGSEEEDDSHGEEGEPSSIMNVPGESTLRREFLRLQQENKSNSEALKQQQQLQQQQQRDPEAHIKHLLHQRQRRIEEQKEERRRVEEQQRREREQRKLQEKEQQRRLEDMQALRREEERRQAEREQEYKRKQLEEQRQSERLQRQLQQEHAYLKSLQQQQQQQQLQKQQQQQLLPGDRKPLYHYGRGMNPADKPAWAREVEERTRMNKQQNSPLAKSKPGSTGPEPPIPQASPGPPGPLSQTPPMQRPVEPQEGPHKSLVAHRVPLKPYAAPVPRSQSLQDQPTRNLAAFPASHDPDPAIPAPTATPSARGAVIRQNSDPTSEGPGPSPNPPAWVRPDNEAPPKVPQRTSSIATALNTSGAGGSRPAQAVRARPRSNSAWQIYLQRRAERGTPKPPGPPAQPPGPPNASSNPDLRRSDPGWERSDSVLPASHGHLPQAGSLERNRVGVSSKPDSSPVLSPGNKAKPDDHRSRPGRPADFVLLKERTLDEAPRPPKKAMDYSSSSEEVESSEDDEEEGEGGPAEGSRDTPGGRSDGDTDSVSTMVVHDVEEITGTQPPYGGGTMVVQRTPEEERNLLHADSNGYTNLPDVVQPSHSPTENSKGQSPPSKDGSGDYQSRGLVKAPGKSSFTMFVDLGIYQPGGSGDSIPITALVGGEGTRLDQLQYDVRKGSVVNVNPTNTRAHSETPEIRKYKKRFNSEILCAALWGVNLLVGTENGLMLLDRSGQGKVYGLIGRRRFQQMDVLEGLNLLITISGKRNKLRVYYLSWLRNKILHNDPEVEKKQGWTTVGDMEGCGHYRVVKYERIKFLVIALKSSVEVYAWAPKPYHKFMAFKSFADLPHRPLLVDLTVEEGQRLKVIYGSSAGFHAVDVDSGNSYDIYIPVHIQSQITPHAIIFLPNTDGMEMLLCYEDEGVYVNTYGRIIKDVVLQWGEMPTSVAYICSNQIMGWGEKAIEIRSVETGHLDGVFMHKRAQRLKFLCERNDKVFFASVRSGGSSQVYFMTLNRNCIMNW
How it was run: as §1

NUAK1 = target: T2, NUAK1 (Homo sapiens, UniProt O60285)
T2 sequence (O60285 1-661): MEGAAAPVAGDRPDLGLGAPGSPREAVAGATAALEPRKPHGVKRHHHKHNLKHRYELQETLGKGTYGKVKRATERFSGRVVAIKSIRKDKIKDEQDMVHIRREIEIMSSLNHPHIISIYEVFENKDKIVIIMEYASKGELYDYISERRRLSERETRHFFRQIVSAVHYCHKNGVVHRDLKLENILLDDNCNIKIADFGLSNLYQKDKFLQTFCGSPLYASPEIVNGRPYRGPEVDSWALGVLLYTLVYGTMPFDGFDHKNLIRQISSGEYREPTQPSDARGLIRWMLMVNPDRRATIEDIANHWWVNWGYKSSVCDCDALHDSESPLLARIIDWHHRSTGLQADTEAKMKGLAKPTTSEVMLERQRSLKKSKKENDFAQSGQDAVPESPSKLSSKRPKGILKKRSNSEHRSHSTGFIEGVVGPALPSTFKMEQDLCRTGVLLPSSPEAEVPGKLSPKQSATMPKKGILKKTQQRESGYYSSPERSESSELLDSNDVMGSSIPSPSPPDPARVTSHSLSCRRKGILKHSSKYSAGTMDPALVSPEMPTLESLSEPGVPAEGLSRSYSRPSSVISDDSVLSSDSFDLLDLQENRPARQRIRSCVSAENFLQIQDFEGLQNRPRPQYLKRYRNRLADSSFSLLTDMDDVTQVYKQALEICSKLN
How it was run: as §1

PAK6 = PAK6 (Homo sapiens, UniProt Q9NQU5)
How it was run: as §1

PHK = conditions: 0.1 μM
How it was run: as §1

PKBa = PKBa (Homo sapiens, UniProt P31749)
How it was run: as §1

PKCa = PKCa (Homo sapiens, UniProt P17252)
How it was run: as §1

ROCK 2 = ROCK 2 (Homo sapiens, UniProt O75116)
ROCK 2, sequence (O75116 whole entry): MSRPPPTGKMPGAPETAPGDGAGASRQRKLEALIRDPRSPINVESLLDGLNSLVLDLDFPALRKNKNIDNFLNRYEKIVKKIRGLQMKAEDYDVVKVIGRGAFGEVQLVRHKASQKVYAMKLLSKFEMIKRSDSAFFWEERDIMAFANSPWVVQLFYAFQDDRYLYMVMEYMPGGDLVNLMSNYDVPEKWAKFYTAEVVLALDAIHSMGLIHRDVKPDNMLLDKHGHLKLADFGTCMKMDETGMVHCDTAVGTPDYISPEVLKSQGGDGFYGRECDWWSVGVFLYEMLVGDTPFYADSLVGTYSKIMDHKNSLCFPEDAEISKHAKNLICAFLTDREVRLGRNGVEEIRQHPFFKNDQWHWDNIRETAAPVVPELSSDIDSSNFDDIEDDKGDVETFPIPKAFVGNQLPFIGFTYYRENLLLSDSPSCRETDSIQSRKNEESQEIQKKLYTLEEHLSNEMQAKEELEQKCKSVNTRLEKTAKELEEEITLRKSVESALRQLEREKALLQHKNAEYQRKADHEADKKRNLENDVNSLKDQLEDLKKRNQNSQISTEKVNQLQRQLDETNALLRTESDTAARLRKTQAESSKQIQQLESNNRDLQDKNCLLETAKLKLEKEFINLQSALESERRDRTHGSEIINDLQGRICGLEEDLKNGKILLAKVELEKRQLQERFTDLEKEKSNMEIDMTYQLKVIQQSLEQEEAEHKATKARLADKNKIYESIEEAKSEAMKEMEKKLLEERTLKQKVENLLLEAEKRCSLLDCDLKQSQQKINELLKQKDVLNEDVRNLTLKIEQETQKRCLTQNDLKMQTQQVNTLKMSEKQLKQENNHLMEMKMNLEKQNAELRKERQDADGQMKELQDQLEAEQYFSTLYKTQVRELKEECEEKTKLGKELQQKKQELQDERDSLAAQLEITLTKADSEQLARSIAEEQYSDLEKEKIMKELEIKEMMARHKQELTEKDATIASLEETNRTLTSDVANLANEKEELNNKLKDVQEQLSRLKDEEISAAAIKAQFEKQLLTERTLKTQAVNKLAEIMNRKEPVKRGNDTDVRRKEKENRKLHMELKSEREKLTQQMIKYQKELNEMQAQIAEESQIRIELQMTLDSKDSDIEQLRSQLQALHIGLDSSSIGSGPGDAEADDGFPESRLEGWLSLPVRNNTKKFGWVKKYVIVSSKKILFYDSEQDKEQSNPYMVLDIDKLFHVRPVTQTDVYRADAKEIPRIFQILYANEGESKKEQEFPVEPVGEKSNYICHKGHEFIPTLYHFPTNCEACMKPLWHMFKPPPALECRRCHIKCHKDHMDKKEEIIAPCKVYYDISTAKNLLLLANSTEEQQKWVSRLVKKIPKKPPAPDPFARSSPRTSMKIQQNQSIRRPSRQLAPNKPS
How it was run: as §1

SIK2 = SIK2 (Homo sapiens, UniProt Q9H0K1)
How it was run: as §1

TTBK2 = TTBK2 (Homo sapiens, UniProt Q6IQ55)
How it was run: as §1

YES1 = YES1 (Homo sapiens, UniProt P07947)
YES1, sequence (P07947 whole entry): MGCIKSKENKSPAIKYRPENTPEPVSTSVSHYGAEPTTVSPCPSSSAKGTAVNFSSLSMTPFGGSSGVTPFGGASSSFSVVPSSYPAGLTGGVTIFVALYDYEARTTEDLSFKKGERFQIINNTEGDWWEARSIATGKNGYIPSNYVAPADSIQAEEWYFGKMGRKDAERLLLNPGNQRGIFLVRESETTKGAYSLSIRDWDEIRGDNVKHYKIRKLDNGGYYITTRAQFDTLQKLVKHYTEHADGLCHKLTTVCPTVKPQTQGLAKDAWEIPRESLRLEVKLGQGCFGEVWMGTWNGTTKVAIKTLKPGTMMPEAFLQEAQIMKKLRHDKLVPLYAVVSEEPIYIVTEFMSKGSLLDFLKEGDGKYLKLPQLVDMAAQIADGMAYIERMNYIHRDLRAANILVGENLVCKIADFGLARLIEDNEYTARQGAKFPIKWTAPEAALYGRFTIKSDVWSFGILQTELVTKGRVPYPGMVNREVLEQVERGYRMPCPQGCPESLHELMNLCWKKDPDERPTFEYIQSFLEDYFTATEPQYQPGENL
How it was run: as §1

p38a MAPK = p38a MAPK (Homo sapiens, UniProt Q16539)
p38a MAPK, sequence (Q16539 whole entry): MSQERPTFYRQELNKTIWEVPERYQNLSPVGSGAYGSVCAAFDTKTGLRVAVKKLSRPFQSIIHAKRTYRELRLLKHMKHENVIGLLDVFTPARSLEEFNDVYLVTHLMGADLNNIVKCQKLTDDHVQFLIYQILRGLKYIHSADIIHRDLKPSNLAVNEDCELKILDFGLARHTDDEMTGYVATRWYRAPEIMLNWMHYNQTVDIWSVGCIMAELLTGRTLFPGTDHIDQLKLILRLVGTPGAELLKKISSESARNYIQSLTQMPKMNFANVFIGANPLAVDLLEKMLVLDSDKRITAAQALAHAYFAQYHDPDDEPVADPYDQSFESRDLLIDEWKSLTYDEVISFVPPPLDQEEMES
How it was run: as §1

p38b MAPK = p38b MAPK (Homo sapiens, UniProt Q15759)
p38b MAPK, sequence (Q15759 whole entry): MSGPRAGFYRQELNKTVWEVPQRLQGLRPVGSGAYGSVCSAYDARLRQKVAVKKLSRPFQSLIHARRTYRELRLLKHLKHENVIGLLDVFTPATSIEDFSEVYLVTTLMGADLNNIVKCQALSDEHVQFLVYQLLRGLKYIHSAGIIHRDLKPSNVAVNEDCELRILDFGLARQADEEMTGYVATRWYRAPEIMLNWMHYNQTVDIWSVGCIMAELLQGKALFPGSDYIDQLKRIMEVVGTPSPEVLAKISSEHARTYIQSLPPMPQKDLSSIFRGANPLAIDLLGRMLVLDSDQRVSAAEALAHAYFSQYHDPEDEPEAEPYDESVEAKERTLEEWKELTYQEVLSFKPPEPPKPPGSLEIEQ
How it was run: as §1

| Structure (SMILES) | inhibition of kinase (AMPK; 0.1 μM) | remaining activity at 0.1 µM (BRK) [%] | remaining activity at 0.1 µM (CK1γ2) [%] | remaining activity at 0.1 µM (DDR2) [%] | remaining activity at 0.1 µM (EPH-B1) [%] | remaining activity at 0.1 µM (FGF-R1) [%] | remaining activity at 0.1 µM (HIPK2) [%] | remaining activity at 0.1 µM (IKKb) [%] | remaining activity at 0.1 µM (MEKK1) [%] | remaining activity at 0.1 µM (MINK1) [%] | remaining activity at 0.1 µM (NUAK1) [%] | remaining activity at 0.1 µM (PAK6) [%] | remaining activity at 0.1 µM (PKBa) [%] | remaining activity at 0.1 µM (PKCa) [%] | remaining activity at 0.1 µM (ROCK 2) [%] | remaining activity at 0.1 µM (SIK2) [%] | remaining activity at 0.1 µM (TTBK2) [%] | remaining activity at 0.1 µM (YES1) [%] | remaining activity at 0.1 µM (p38a MAPK) [%] | remaining activity at 0.1 µM (p38b MAPK) [%] | also measured |
| --- | --- | --- | --- | --- | --- | --- | --- | --- | --- | --- | --- | --- | --- | --- | --- | --- | --- | --- | --- | --- | --- |
| CCc1ccccc1C(=O)Nc1n[nH]c2c(C)c(F)c(C3C(C#N)=C(C)N(C)C(C)=C3C#N)cc12 [BAY-3827, N-[5-(3,5-dicyano-1,2,6-trimethyl-4H-pyridin-4-yl)-6-fluoro-7-methyl-1H-indazol-3-yl]-2-ethylbenzamide] | > 90% | 83 | 95 | 80 | 91 | 89 | 121 | 105 | 97 | ≤ 50 | 68 | 106 | 95 | 90 | 83 | 107 | 93 | 98 | 97 | 55 | activity remaining after treatment (AMPK; 1 μM, cross-referenced with screen data of ref 37): ≤ 50%; remaining activity at 1 µM (IKKb; 1 μM, IKKβ, cross-referenced with screen data of ref 37, read-out: activity remaining after treatment): ≥ 99%; inhibition at 0.1 µM (MINK1): ~60%; remaining activity at 1 µM (NUAK1; 1 μM, cross-referenced with screen data of ref 37, read-out: activity remaining after treatment): ≤ 50%; inhibition of kinase (PHK): 80 to 85% |
| CC1=C(C#N)C(c2ccc3c(c2)c(NC(=O)c2ccccc2C)nn3C)C(C#N)=C(C)N1 [BAY-974, N-[5-(3,5-dicyano-2,6-dimethyl-1,4-dihydropyridin-4-yl)-1-methylindazol-3-yl]-2-methylbenzamide] | almost no effect | 70 | 112 | 89 | 107 | 91 | 108 | 89 | 99 | 79 | 60 | 102 | 95 | 110 | 98 | 88 | 91 | ≤ 50 | 108 | 81 | Kinase activity remaining (%) (AMPK; 0.1 μM): 98%; Kinase activity remaining (%) (PHK): 120%; inhibition at 0.1 µM (YES1): 55 to 90% |
